Measurements reported in US11225675B2, “D-lactate dehydrogenase, engineered strain containing D-lactate dehydrogenase and construction method and use of engineered strain” (Shanghai Jiao Tong University, priority 2017, dated 2022).

What was measured:
[1] = molecular target: T1, D-lactate dehydrogenases LdhTi (Thermodesulfatator indicus, UniProt F8A9V0); assay: Enzymatic characteristic identification (substrate spectrum) of D-lactate dehydrogenase LdhTi, NADH/NAD at 340 nm; assay type: biochemical; details: for whether LdhTi catalyzes the substrate (in words) / Km / kcat: 50 mM phosphate buffer pH 7.0, 0.2 mM NADH or NAD+, 37° C.; for Km / kcat: substrate of purified LdhTi, “—” = enzyme has no activity for the substrate
Procedure: A reaction system is consisting of: 50 mM phosphate buffer solution (pH 7.0), 0.2 mM NADH or NAD^+ as coenzyme, a suitable amount of D-lactate dehydrogenases LdhTi and substrates with different concentrations, reacted at 37° C. An enzyme activity determination method is to determine oxidization of NADH or reduction of NAD at ultraviolet wavelength of 340 nm, wherein one enzyme activity unit is defined as the enzyme amount needed for oxidizing or reducing 1 μmoL NADH or NAD in one minute.

[2] = substrate: O=C(O)C(=O)Cc1ccccc1; assay: purified protein, by the assay type; details: other: substrate of purified LdhTi, 50 mM phosphate buffer pH 7.0, 0.2 mM NADH or NAD+, 37° C., “—” = enzyme has no activity for the substrate
[3] = substrate: CC(=O)C(=O)O; assay: Enzymatic characteristic identification (substrate spectrum) of D-lactate dehydrogenase LdhTi, NADH/NAD at 340 nm; assay type: biochemical, Thermodesulfatator indicus; details: other: substrate of purified LdhTi, 50 mM phosphate buffer pH 7.0, 0.2 mM NADH or NAD+, 37° C., “—” = enzyme has no activity for the substrate
[4] = substrate: C[C@@H](O)C(=O)O; assay: as above; assay type: biochemical, Thermodesulfatator indicus; details: other: substrate of purified LdhTi, 50 mM phosphate buffer pH 7.0, 0.2 mM NADH or NAD+, 37° C., “—” = enzyme has no activity for the substrate
[5] = molecular target: T1, D-lactate dehydrogenases LdhTi; assay: Determination of the optimal reaction pH value of D-lactate dehydrogenases LdhTi; assay type: biochemical; details: 37° C., 20 mM pyruvic acid, 0.2 mM NADH, pH range 3.0-11.0, FIG. 3
Procedure: An enzyme activity determination method is to determine change in NADH at ultraviolet wavelength of 340 nm, and one enzyme activity unit is defined as the enzyme amount needed for oxidizing 1 μmoL of NADH in one minute. At 37° C., by using 20 mM pyruvic acid as a substrate and 0.2 mM NADH as a coenzyme, the change of enzyme activity of the D-lactate dehydrogenase within a pH range of 3.0-11.0 was determined. A buffer system is consisting of: 50 mM citric acid-sodium citrate buffer solution with pH of 3.0-7.0; 50 mM phosphate buffer solution with pH of 7.0-9.0; and 50 mM sodium carbonate-sodium hydrogen carbonate buffer solution with pH of 9.0-11.0. Experiments were repeated thrice. […] Relative enzyme activities in FIG. 3 are relative enzyme activities, which are obtained by: determining enzyme activities at different pH values, and correspondingly converting the enzyme activity values at other pH values on the basis that the highest value at pH 6.0 is 100%.

[6] = molecular target: T1, D-lactate dehydrogenases LdhTi; assay: Determination of the optimal reaction temperature of D-lactate dehydrogenases LdhTi; assay type: biochemical; details: 20 mM pyruvic acid, 0.2 mM NADH, 20 mM phosphate buffer pH 7.0, 30° C. to 100° C., FIG. 4
Procedure: An enzyme activity determination method is to determine change in NADH at ultraviolet wavelength of 340 nm, and one enzyme activity unit is defined as the enzyme amount needed for oxidizing 1 μmoL of NADH in one minute. Conditions for determination of the optimal reaction temperature of D-lactate dehydrogenases were as follows: 20 mM pyruvic acid as a substrate, 0.2 mM NADH as a coenzyme and 20 mM phosphate buffer solution (pH 7.0) system are adopted; and enzyme activities from 30° C. to 100° C. were respectively determined, and experiments were repeated thrice. […] Relative enzyme activities in FIG. 4 are relative enzyme activities, which are obtained by: determining enzyme activities at different temperature conditions, and correspondingly converting the enzyme activity values at other temperature conditions on the basis that the highest value at 70° C. is 100%.

O=CC(=O)O [Glyoxylic Acid, glyoxylic acid]
whether LdhTi catalyzes the substrate (in words) [1]: can catalyze | Km [1]: 1760 ± 80 µM | kcat [1]: 2.297 ± 0.0517 s⁻¹

O=C(O)CC(=O)C(=O)O [Oxaloacetic Acid, oxaloacetic acid]
whether LdhTi catalyzes the substrate (in words) [1]: can catalyze | Km [1]: 1320 ± 50 µM | kcat [1]: 4.473 ± 0.0983 s⁻¹

C[C@@H](O)C(=O)O [D-lactic Acid, D-lactic acid]
whether LdhTi catalyzes the substrate (in words) [1]: can catalyze

CC(=O)C(=O)O [Pyruvic Acid, pyruvic acid]
whether LdhTi catalyzes the substrate (in words) [1]: can catalyze | catalytic efficiency of LdhTi for the substrate (in words) ([1]; compared among the tested substrates): highest catalytic efficiency

C[C@H](O)C(=O)O [L-lactic Acid, L-lactic acid]
whether LdhTi catalyzes the substrate (in words) [1]: no activity

O=C(O)C(O)CO (centres unmarked) [Glyceric Acid, glyceric acid]
whether LdhTi catalyzes the substrate (in words) [1]: no activity

O=C(O)C(=O)Cc1ccccc1 [Phenylpyruvic Acid, phenylpyruvic acid]
whether LdhTi catalyzes the substrate (in words) [1]: can catalyze

B1: D-lactate dehydrogenases LdhTi (Thermodesulfatator indicus DSM 15286) (protein)
chain: MKVIFFSMHPYEEEFLGPILPSDWDVEMTPDFLDETTVEKAKGAQVVSLFVSDKADGPVLEALHSYGVGLLALRSAGYDHIDIETAKRLGIKVVNVPAYSPHAIADHTLAIMLALIRRLHRAHDKVRLGDFDLDGLMGFDLNGKVAGVIGLGKIGRLVATRLKAFGCKVLGYDPYIQPEIVENVDLDTLITQADIISIHCPLTRENFHMFNEETFKRMKPGAILVNTARGGLIDTKALLEALKSGKLGGAALDVYEYERGLFFKNHQKEGIKDPYLAQLLGLANVVLTGHQAFLTREAVKNIEETTVENILEWQKNPQAKLKNEI
Km [2]: 4580 ± 240 µM | kcat [2]: 0.295 s⁻¹ | kcat/Km [2]: 64.3 M⁻¹ s⁻¹ | Km [3]: 50 ± 10 µM | kcat [3]: 1.08 ± 0.0283 s⁻¹ | kcat/Km [3]: 20700 ± 667 M⁻¹ s⁻¹ | Km [4]: 5410 ± 280 µM | kcat [4]: 0.105 ± 0.005 s⁻¹ | kcat/Km [4]: 19.3 ± 0.5 M⁻¹ s⁻¹

B2: LdhTi: D-lactate dehydrogenase from Thermodesulfatator indicus DSM 15286, amino acid sequence SEQ ID No. 1, expressed in E. coli and purified (protein)
chain: MKVIFFSMHPYEEEFLGPILPSDWDVEMTPDFLDETTVEKAKGAQVVSLFVSDKADGPVLEALHSYGVGLLALRSAGYDHIDIETAKRLGIKVVNVPAYSPHAIADHTLAIMLALIRRLHRAHDKVRLGDFDLDGLMGFDLNGKVAGVIGLGKIGRLVATRLKAFGCKVLGYDPYIQPEIVENVDLDTLITQADIISIHCPLTRENFHMFNEETFKRMKPGAILVNTARGGLIDTKALLEALKSGKLGGAALDVYEYERGLFFKNHQKEGIKDPYLAQLLGLANVVLTGHQAFLTREAVKNIEETTVENILEWQKNPQAKLKNEI
modifications: Thermodesulfatator indicus DSM 15286
optimal reaction pH value [5]: 6.0 | optimal reaction temperature [6]: 70 °C
